Measured values taken from PubChem BioAssay (NCI).
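Compound exposure: 48 hours, 5 concentrations, 96-well plates. GI50 = concentration required for 50% inhibition of growth. TGI is the concentration that stops growth completely.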

What was measured:
Test in all cases: DTP human tumour cell line panel, 48 h
SNB-19 CNS = tested on: SNB-19 CNS
SNB-75 CNS = tested on: SNB-75 CNS
UACC-62 melanoma = tested on: UACC-62 melanoma
MALME-3M melanoma = tested on: MALME-3M melanoma
786-0 renal = tested on: 786-0 renal
A498 renal = tested on: A498 renal
NCI-H23 lung = tested on: NCI-H23 lung
KM12 colon = tested on: KM12 colon
SF-295 CNS = tested on: SF-295 CNS
CAKI-1 renal = tested on: CAKI-1 renal

Compound	GI50 (SNB-19 CNS) [µM]	TGI (SNB-19 CNS) [µM]	GI50 (SNB-75 CNS) [µM]	TGI (SNB-75 CNS) [µM]	GI50 (UACC-62 melanoma) [µM]	TGI (UACC-62 melanoma) [µM]	GI50 (MALME-3M melanoma) [µM]	TGI (MALME-3M melanoma) [µM]	GI50 (786-0 renal) [µM]	TGI (786-0 renal) [µM]	GI50 (A498 renal) [µM]	TGI (A498 renal) [µM]	GI50 (NCI-H23 lung) [µM]	TGI (NCI-H23 lung) [µM]	GI50 (KM12 colon) [µM]	TGI (KM12 colon) [µM]	GI50 (SF-295 CNS) [µM]	TGI (SF-295 CNS) [µM]	GI50 (CAKI-1 renal) [µM]	TGI (CAKI-1 renal) [µM]
O=c1nc2oc3ccc4ccccc4c3cc-2s1	6.73	> 100	0.476	10.1	1.22	> 100	0.743	> 100	3.25	> 100	0.184	7.86	28.7	> 100	0.961	> 100	2.96	> 92.7	1.16	> 100
CCCCN(CCCC)c1ccc(C(=N)c2ccc(N(CCCC)CCCC)cc2)cc1	0.468	1.91	0.746	2.14	0.369	1.5	0.508	2.12	0.847	2.25	1.24	2.56	0.292	1.06	0.334	1.25	0.499	1.79	0.535	1.82
O=CC1CCCc2ccccc21 (stereo not given)		> 100		> 100		> 100		> 100		> 100		> 100		> 100		> 100		> 100		> 100
COc1cc(C2C(Cl)C(=O)N2NC(=O)c2ccc(N)cc2)ccc1O (stereo not given)		78.9		> 100		> 100		32.1		39.4		> 100		44.8		> 100		> 100		78.9
Cc1ccccc1NC(=O)C(=O)CC(=O)c1c(C)n([O-])c2ccccc2[n+]1=O		> 100		> 100		> 100		> 100		> 100		> 100		> 100		> 100		> 100		> 100
O=c1c2ccccc2nc(-c2ccccc2)n1NC1OC(CO)C(O)C(O)C1O (stereo not given)		> 100		> 100		> 100		> 100		> 100		> 100		> 100		> 100		> 100		> 100
Cc1ccc(C)c(NC(=O)CC/C(=N\NC(=O)c2c(O)ccc3ccccc23)C(C)C(=O)c2ccc(O)cc2)c1 (stereo not given)		> 100		> 100		34.3		90.2		> 100		> 100		91.3		> 100		> 100		> 100
